According to patent publication US11028090B2 (Dong Wha Pharm. Co., Ltd., priority 2017, dated 2021):
Counter-ions that a name gives are not always drawn. Like-named read-outs stand apart in the source and are kept apart here.

Key:
[1] = biological target: BRD4 (BD1+BD2) bromodomain (Homo sapiens (Human), UniProt O60885); test: BRD4 binding inhibition (AlphaScreen, GST-BRD4 vs tetraacetylated histone H4 peptide)
Summary of the method: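 AlphaScreen read after 30 min dark incubation at room temperature with glutathione acceptor/streptavidin donor beads (10 μg/ml each). The beads were added to compound plus 100 nM biotin-H4 (K5,8,12,16-acetyl) peptide and 100 nM GST-BRD4 BD1+BD2 in pH 7.4 HEPES/Tween/BSA/DTT buffer.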

[2] = test system: acute myelogenous leukemia cells (MV-4-11 cells); test: Cytotoxicity to acute myelogenous leukemia cells (MV-4-11 cells), CCK-8; conditions: Homo sapiens, MV4-11, 72 h
[3] = GST-BRD4 (BD1+BD2) / biotinylated acetyl-histone H4 (Lys5,8,12,16) peptide, read-out: IC50, BRD4 binding inhibition
[4] = GST-BRD4 (BD1+BD2) vs biotinylated acetyl-histone H4 peptide, AlphaScreen, read-out: BRD4 IC50
[5] = read-out: MV-4-11 Cytotoxicity IC50
[6] = read-out: IC50, cytotoxicity against acute myelogenous leukemia cells

IC50 [1, 3] [nM]	IC50 [1, 4] [nM]	SMILES	IC50 [2, 5] [nM]	IC50 [2, 6] [nM]
≤ 50	19	Cc1nnc2c(NCCCCNC(=O)[C@@H](NC(=O)OC(C)(C)C)C(C)C)nc3cc(N4C[C@@H](C)O[C@@H](C)C4)ccc3n12 [Example 513, (S)-{2-methyl-1-[4-(1-methyl-7-(2,6-dimethyl-morpholine-4-yl)-[1,2,4]triazolo[4,3-a]quinoxaline-4-ylamino)-butylcarbamoyl]-propyl}-carbamic acid-tert-butylester]	279	
	60	Cc1nnc2c(NCCCCNC(=O)[C@@H](N)C(C)C)nc3cc(N4CC(C)OC(C)C4)ccc3n12 (stereo partly drawn) [Example 514, 2-(S)-amino-N-{4-[7-(2,6-dimethyl-morpholine-4-yl)-1-methyl-[1,2,4]triazolo[4,3-a]quinoxaline-4-ylamino]-butyl}-3-methyl-butyramide hydrochloride]	432	
≤ 50		Cc1nnc2c(NCCCCNC(=O)[C@@H](NC(=O)OCC(C)C)C(C)C)nc3cc(N4C[C@@H](C)O[C@@H](C)C4)ccc3n12 [Example 515, (S)-(1-{4-[7-(2,6-dimethyl-morpholine-4-yl)-1-methyl-[1,2,4]triazolo[4,3-a]quinoxaline-4-ylamino]-butylcarbamoyl}-2-methyl-propyl)-carbamic acid isobutylester]	90	≤ 200
≤ 50		CCCOC(=O)N[C@H](C(=O)NCCCCNc1nc2cc(N3C[C@@H](C)O[C@@H](C)C3)ccc2n2c(C)nnc12)C(C)C [Example 516, (S)-(1-{4-[7-(2,6-dimethyl-morpholine-4-yl)-1-methyl-[1,2,4]triazolo[4,3-a]quinoxaline-4-ylamino]-butylcarbamoyl}-2-methyl-propyl)-carbamic acid propylester]	518	
≤ 50	38	Cc1nnc2c(NCCCCNC(=O)[C@@H](NC(=O)[C@@H](F)C(C)C)C(C)C)nc3cc(N4C[C@@H](C)O[C@@H](C)C4)ccc3n12 [Example 517]	236	
≤ 50	49	Cc1nnc2c(NCCCCNC(=O)[C@@H](NC(=O)C(C)(C)C)C(C)C)nc3cc(N4C[C@@H](C)O[C@@H](C)C4)ccc3n12 [Example 519]	400	
≤ 50	24	Cc1nnc2c(NCCCCNC(=O)[C@@H](NC(=O)OC(C)C)C(C)C)nc3cc(N4C[C@@H](C)O[C@@H](C)C4)ccc3n12 [Example 520, (S)-(1-{4-[7-(2,6-dimethyl-morpholine-4-yl)-1-methyl-[1,2,4]triazolo[4,3-a]quinoxaline-4-ylamino]-butylcarbamoyl}-2-methyl-propyl)-carbamic acid isopropylester]	174	≤ 200
≤ 50	15	Cc1nnc2c(NCCCCNC(=O)CC(C)C)nc3cc(N4CCc5sccc5C4)ccc3n12 [Example 528, N-{4-[7-(6,7-dihydro-4H-thiano[3,2-c]pyridine-5-yl)-1-methyl-[1,2,4]triazolo[4,3-a]quinoxaline-4-ylamino]-butyl}-3-methyl-butyramide]	203	
≤ 50	31	Cc1nnc2c(NCCCCNC(=O)[C@@H](F)C(C)C)nc3cc(N4CCc5sccc5C4)ccc3n12 [Example 529, N-{4-[7-(6,7-dihydro-4H-thiano[3,2-c]pyridine-5-yl)-1-methyl-[1,2,4]triazolo[4,3-a]quinoxaline-4-ylamino]-butyl}-2-(S)-fluoro-3-methyl-butyramide]	107	≤ 200
≤ 50	21	Cc1nnc2c(NCCCCNC(=O)CC(C)C)nc3ccc([N+](=O)[O-])cc3n12 [Example 550, 3-methyl-N-[4-(1-methyl-8-nitro-[1,2,4]triazolo[4,3-a]quinoxaline-4-ylamino)-butyl]-butyramide]	157	≤ 200
≤ 50	12	Cc1nnc2c(NCCCCNC(=O)CC(C)C)nc3ccc(N)cc3n12 [Example 551, N-[4-(8-amino-1-methyl-[1,2,4]triazolo[4,3-a]quinoxaline-4-ylamino)-butyl]-3-methyl-butyramide]	135	≤ 200
≤ 50	21	CCCNc1ccc2nc(NCCCCNC(=O)CC(C)C)c3nnc(C)n3c2c1 [Example 552, 3-methyl-N-[4-(1-methyl-8-propylamino-[1,2,4]triazolo[4,3-a]quinoxaline-4-ylamino)-butyl]-butyramide]	157	≤ 200
≤ 50	24	Cc1nnc2c(NCCCCNC(=O)CC(C)C)nc3ccc(NCCCC#N)cc3n12 [Example 553, N-{4-[8-(3-cyano-propylamino)-1-methyl-[1,2,4]triazolo[4,3-a]quinoxaline-4-ylamino]-butyl}-3-methyl-butyramide]	174	≤ 200
	65	COc1cc2nc(NCCCCNC(=O)CC(C)C)c3nnc(C)n3c2cc1[N+](=O)[O-] [Example 555, N-[4-(7-methoxy-1-methyl-8-nitro-[1,2,4]triazolo[4,3-a]quinoxaline-4-ylamino)-butyl]-3-methyl-butyramide]	118	≤ 200
≤ 50	31	COc1cc2nc(NCCCCNC(=O)CC(C)C)c3nnc(C)n3c2cc1N [Example 556, N-[4-(8-amino-7-methoxy-1-methyl-[1,2,4]triazolo[4,3-a]quinoxaline-4-ylamino)-butyl]-3-methyl-butyramide]	1	≤ 200
≤ 50	13	CNc1cc2c(cc1OC)nc(NCCCCNC(=O)CC(C)C)c1nnc(C)n12 [Example 557, N-[4-(7-methoxy-1-methyl-8-methylamino-[1,2,4]triazolo[4,3-a]quinoxaline-4-ylamino)-butyl]-3-methyl-butyramide]	280	
	57	COc1cc2nc(NCCCCNC(=O)CC(C)C)c3nnc(C)n3c2cc1NO [Example 558, N-[4-(8-hydroxyamino-7-methoxy-1-methyl-[1,2,4]triazolo[4,3-a]quinoxaline-4-ylamino)-butyl]-3-methyl-butyramide]	87	≤ 200
≤ 10	7	CCCNc1cc2c(cc1OC)nc(NCCCCNC(=O)CC(C)C)c1nnc(C)n12 [Example 559, N-[4-(7-methoxy-1-methyl-8-propylamino-[1,2,4]triazolo[4,3-a]quinoxaline-4-ylamino)-butyl]-3-methyl-butyramide]	141	≤ 200
≤ 50	37	C#CCNc1cc2c(cc1OC)nc(NCCCCNC(=O)CC(C)C)c1nnc(C)n12 [Example 560]	71	≤ 200
≤ 50	32	COc1cc2nc(NCCCCNC(=O)CC(C)C)c3nnc(C)n3c2cc1NC(=O)CC(C)C [Example 562, N-{4-[7-methoxy-1-methyl-8-(3-methyl-butyrylamino)-[1,2,4]triazolo[4,3-a]quinoxaline-4-ylamino]-butyl}-3-methyl-butyramide]	375	
≤ 50		COc1cc2nc(NCCCCNC(=O)CC(C)C)c3nnc(C)n3c2cc1NC(=O)CC(C)(C)C [Example 563]	559	
≤ 10	9	COc1cc2nc(NCCCCNC(=O)CC(C)C)c3nnc(C)n3c2cc1NC(=O)Cc1ccccc1 [Example 564]	610	
≤ 50	13	COc1cc2nc(NCCCCNC(=O)CC(C)C)c3nnc(C)n3c2cc1NS(=O)(=O)CC(C)C [Example 567]	200	≤ 200
≤ 50	28	COc1cc2nc(NCCCCNC(=O)CC(C)C)c3nnc(C)n3c2cc1NC(=O)Nc1ccccc1 [Example 568, N-{4-[7-methoxy-1-methyl-8-(3-phenyl-ureido)-[1,2,4]triazolo[4,3-a]quinoxaline-4-ylamino]-butyl}-3-methyl-butyramide]	658	
≤ 50	11	COc1cc2nc(NCCCCNC(=O)CC(C)C)c3nnc(C)n3c2cc1NC(=S)NC(C)C [Example 569, N-{4-[8-(3-isopropyl-thioureido)-7-methoxy-1-methyl-[1,2,4]triazolo[4,3-a]quinoxaline-4-ylamino]-butyl}-3-methyl-butyramide]	237	
≤ 50	40	COc1cc2nc(NCCCCNC(=O)CC(C)C)c3nnc(C)n3c2cc1F [Example 574, N-[4-(8-fluoro-7-methoxy-1-methyl-[1,2,4]triazolo[4,3-a]quinoxaline-4-ylamino)-butyl]-3-methyl-butyramide]	45	≤ 200
	51	COc1cc2c(cc1F)nc(NCCCCNC(=O)CC(C)C)c1nnc(C)n12 [Example 575, N-[4-(7-fluoro-8-methoxy-1-methyl-[1,2,4]triazolo[4,3-a]quinoxaline-4-ylamino)-butyl]-3-methyl-butyramide]	337	
	52	COc1cc2nc(NCCCCNC(=O)CC(C)C)c3nnc(C)n3c2cc1OCCN1CCOCC1 [Example 576, N-{4-[7-methoxy-1-methyl-8-(2-morpholine-4-yl-ethoxy)-[1,2,4]triazolo[4,3-a]quinoxaline-4-ylamino]-butyl}-3-methyl butyramide]	86	≤ 200
